Results taken from patent US7745120B2, “Cell culture and method for screening for a compound useful in the treatment or prevention of hepatic cirrhosis” (Industrial Technology Research Institute, priority 2004, dated 2010).
Entries after “also recorded” stand apart in the source; their conditions may differ.

Assays:
Assay type in all cases: cell-based, human
[1] = test system: Huh-7PALB-EGFP and immortalized HSC coculture; test: methylene blue assay of cell activity in thioacetamide-damaged co-culture; details: interferon-α 1000, 5000, 10000 IU/ml added 3 hours before 100 mM thioacetamide; read after 24 hours; FIG. 11A
Description: Modified human HSCs and Huh-7 cells obtained from examples 1 and 6 were co-cultured via layer by layer culturing. Immortalized human HSCs were cultured in a 24-well culture plate, wherein each well was coated with extracellular matrix before use. The extracellular maxtrix used in the present example was Type I collagen or Matrigel. Six hours after the HSCs were attached, Huh-7 cells carrying albumin promoter (pLpLhyg-PAlb5/3-EGFP) (Huh-7PALB-EGFP) were subsequently cultured on the top of the attached HSCs.
One day later, 1000, 5000, 10000 IU/ml of interferon-α(F. Hoffman-La Roche, Ltd.) was added into cells respectively. Three hours later, 100 mM of thioacetamide (Sigma-Aldrich, Co.) was added to damage the cells. After 24 hours, methylene blue assay was conducted for analyzing the cell activity. In the meantime, the intensity of green fluorescence was determined by a fluorescence reader, and the result is shown in FIG. 11B.

[2] = test system: Huh-7PALB-EGFP and immortalized HSC coculture; test: green fluorescence intensity (EGFP reporter under albumin promoter) by fluorescence reader in thioacetamide-damaged co-culture; details: interferon-α 1000, 5000, 10000 IU/ml added 3 hours before 100 mM thioacetamide; read after 24 hours; two independent experiments, average of 3 wells; FIG. 11B
Description: The fluorescence signal expressed from transfected cells of example 5 was observed under a fluorescence microscope, and the fluorescence intensity was analyzed by image analysis software. Fluorescence intensity of EGFP was determined by a fluorescence reader and an fluorescence ELISA reader. The excitation wavelength was 488 nm, and the emission wavelength was 510 nm while the green fluorescence from the EGFP gene was detected. When the red fluorescence from DsRed gene was detected, the excitation wavelength was 558 nm, and the emission wavelength was 583 nm. A flow cytometry (for example, FACSCalibur, Becton Dickinson, Inc.) can also be used to determine the intensity of fluorescence.
Modified human HSCs and Huh-7 cells obtained from examples 1 and 6 were co-cultured via layer by layer culturing. Immortalized human HSCs were cultured in a 24-well culture plate, wherein each well was coated with extracellular matrix before use. The extracellular maxtrix used in the present example was Type I collagen or Matrigel. […]
One day later, 1000, 5000, 10000 IU/ml of interferon-α(F. Hoffman-La Roche, Ltd.) was added into cells respectively. […] In the meantime, the intensity of green fluorescence was determined by a fluorescence reader, and the result is shown in FIG. 11B.

[3] = test system: immortalized hepatocyte THLE-2 and immortalized HSC coculture; test: methylene blue assay of cell activity in thioacetamide-damaged co-culture of normal hepatocytes and HSCs; details: THLE-2 / HSC co-culture; interferon-α 1000, 5000, 10000 IU/ml added 3 hours before thioacetamide; read after another 24 hours; FIG. 11C
Description: To compare the cells in the present example with the normal hepatocytes and HSCs after drug treatment, immortalized human hepatocytes THLE-2 (ATCC NO: CRL-2706, normal primary hepatocytes immortalized by SV40 large T antigen gene) and untransfected human HSCs were co-cultured following procedures described as the above. After 24 hours, 1000,5000,10000 IU/ml of interferon-αwere added. Thioacetamide was applied to damage the cells after 3 hours. After another 24 hours, the cell activity was examined by methylene blue assay, and the result is shown as FIG. 11C. The result corresponds to that of the cell model for drug screening with pLpLhyg-PAlb5/3-EGFP transfected cells (FIG. 11A).

## interferon-α
[1]
  effect on damage from thioacetamide, methylene blue assay (cell activity): decreased the damage from thioacetamide; also recorded: decreased cell damaged by thioacetamide
[2]
  effect on damage from thioacetamide, fluorescence intensity expressed by Huh-7PALB-EGFP: decreased the damage from thioacetamide; also recorded: decreased cell damaged by thioacetamide
[3]
  effect on damage from thioacetamide, methylene blue assay (cell activity): decreased the damage from thioacetamide
